Measured values as given in US20210128690A1, “METHODS OF ADMINISTERING HEPCIDIN” (La Jolla Pharmaceutical Company, priority 2016, published 2021).

Assay: hepcidin administration to human subjects (patients with sickle cell disease or hereditary hemochromatosis)
Format: in vivo
Settings: doses of 1 mg hepcidin and 5 mg hepcidin
Description: FIG. 1 illustrates the change in serum ferritin levels at baseline and 8 days post hepcidin administration in two patients with sickle cell disease and a high ferritin serum baseline.
Efficacy at this dosing was not expected based on animal studies in mice, rats, and dogs.

SMILES: CC[C@H](C)[C@@H]1NC(=O)[C@@H](NC(=O)[C@@H](NC(=O)[C@@H]2CCCN2C(=O)[C@H](Cc2ccccc2)NC(=O)[C@H](Cc2c[nH]cn2)NC(=O)[C@@H](NC(=O)[C@@H](N)CC(=O)O)[C@@H](C)O)[C@@H](C)CC)CSSC[C@@H](C(=O)N[C@@H](CCCCN)C(=O)N[C@H](C(=O)O)[C@@H](C)O)NC(=O)[C@@H]2CSSC[C@@H]3NC(=O)[C@@H]4CSSC[C@H](NC(=O)[C@H](Cc5ccccc5)NC1=O)C(=O)N[C@@H](CSSC[C@H](NC(=O)[C@H](CCCCN)NC(=O)[C@H](CO)NC(=O)[C@H](CCCNC(=N)N)NC(=O)[C@H](Cc1c[nH]cn1)NC3=O)C(=O)NCC(=O)N[C@@H](CCSC)C(=O)N2)C(=O)NCC(=O)N4 [hepcidin]
- efficacy in human subjects: display efficacy
